Legend:
E. cloacae GN7471 = test: Sensitivity test (agar dilution); assay type: cell-based, Enterobacter cloacae
Procedure: (§1) The antibacterial activities were tested against various 18 bacteria (27 standard strains) which are representative bacteria caused clinically infectious disease (Staphylococcus aureus 3 strains, Staphylococcus epidermidis 1 strain, Micrococcus luteus 1 strain, Streptococcus pyogenes 1 strain, Enterococcus faecalis 1 strain, Enterococcus faecium 1 strain, Bacillus subtilis 1 strain, Escherichia coli 3 strains, Klebsiella pneumoniae 1 strain, Proteus mirabilis 1 strain, Proteus vulgaris 2 strains, Pseudomonas aeruginosa 3 strains, Serratia marcescens 2 strains, Enterobacter aerogenes 1 strain, Stenotrophomonas maltophilia 1 strain, Enterobacter cloacae 1 strain, Citrobacter freundii 1 strain, Moraxella catarrhalis 2 strains).
(§2) According to the standard method of Japan Chemotherapeutic Society (Chemotherapy, vol. […], p 76-79 (1981)) the test was carried out using the agar dilution method. After dissolving test samples in distilled water, agar medium containing the test samples was prepared in such a manner that the final concentration became twice serial dilution by pouring serially diluted combination drug solution or a single drug solution into agar medium. As agar medium was used Mueller Hinton Agar medium (MHA). Then, each strain was cultivated over night at 37° C. in an incubator and suspended in buffered saline solution with gelatin (BSG) in the concentration of about 10^6 CFU/ml. The suspension (about 5 μl) containing test strains was inoculated to the medium containing the test samples by Micro Planter.
(§3) When the sample is subjected to sensitivity test, this mixed solution was diluted by twice serial dilution method.
(§4) Furthermore, when the drug is solely used, each test sample was used as it is, and diluted by twice serial dilution method from the maximum concentration to the minimum concentration.
(§5) FIC index based on MIC value was calculated. […] Namely, when FIC index calculated by the following formula is equal or less than 1, the enhanced effect of the combination drug in said ratio is considered as positive. When FIC index is over 1, the enhanced effect of the combination drug in said ratio is considered as negative.
(§6) Formula of FIC index: FIC index=(MIC of Drug A in combination/MIC of Drug A alone)+(MIC of Drug B in combination/MIC of Drug B alone) N.C. in tables means being not calculated.

S. epidermidis IAM1296 = test: Sensitivity test (agar dilution); assay type: cell-based, Staphylococcus epidermidis
Procedure: as §1, §2, §3, §4, §5, §6

B. subtilis ATCC6633 = test: Sensitivity test (agar dilution); assay type: cell-based, Bacillus subtilis
Procedure: as §1, §2, §3, §4, §5, §6

M. catarrhalis ATCC25238 = test: Sensitivity test (agar dilution); assay type: cell-based, Moraxella catarrhalis
Procedure: as §1, §2, §3, §4, §5, §6

M. catarrhalis ATCC8176 = test: Sensitivity test (agar dilution); assay type: cell-based, Moraxella catarrhalis
Procedure: as §1, §2, §3, §4, §5, §6

E. coli ML1410 RP4 = test: microbe, parasite or virus in culture; assay type: cell-based, Escherichia coli; conditions: alone
Procedure: as §1, §2, §3, §4, §5, §6

E. faecalis ATCC19433 = test: Sensitivity test (agar dilution); assay type: cell-based, Enterococcus faecalis
Procedure: as §1, §2, §3, §4, §5, §6

E. aerogenes ATCC13048 = test: Sensitivity test (agar dilution); assay type: cell-based, Enterobacter aerogenes
Procedure: as §1, §2, §3, §4, §5, §6

S. maltophilia IID1275 = test: Sensitivity test (agar dilution); assay type: cell-based, Stenotrophomonas maltophilia
Procedure: as §1, §2, §3, §4, §5, §6

[1] = system: S. aureus SP-7928 (homo-MRSA); test: Sensitivity test (agar dilution); assay type: cell-based, Staphylococcus aureus
Procedure: as §1, §2, §3, §4, §5, §6

[2] = system: S. aureus MS94088 (hetero-MRSA); test: Sensitivity test (agar dilution); assay type: cell-based, Staphylococcus aureus
Procedure: as §1, §2, §3, §4, §5, §6

S. aureus 209P = test: Sensitivity test (agar dilution); assay type: cell-based, Staphylococcus aureus
Procedure: as §1, §2, §3, §4, §5, §6

P. aeruginosa TL-2667 = test: Sensitivity test (agar dilution); assay type: cell-based, Pseudomonas aeruginosa
Procedure: as §1, §2, §3, §4, §5, §6

P. aeruginosa TL-2666 = test: Sensitivity test (agar dilution); assay type: cell-based, Pseudomonas aeruginosa
Procedure: as §1, §2, §3, §4, §5, §6

P. aeruginosa IFO3451 = test: Sensitivity test (agar dilution); assay type: cell-based, Pseudomonas aeruginosa
Procedure: as §1, §2, §3, §4, §5, §6

E. coli NIHJ JC-2 = test: Sensitivity test (agar dilution); assay type: cell-based, Escherichia coli
Procedure: as §1, §2, §3, §4, §5, §6

E. coli ML1410 = test: Sensitivity test (agar dilution); assay type: cell-based, Escherichia coli; conditions: alone
Procedure: as §1, §2, §3, §4, §5, §6

Str. pyogenes Cook = test: Sensitivity test (agar dilution); assay type: cell-based, Streptococcus pyogenes
Procedure: as §1, §2, §3, §4, §5, §6

M. luteus ATCC9341 = test: Sensitivity test (agar dilution); assay type: cell-based, Micrococcus luteus
Procedure: as §1, §2, §3, §4, §5, §6

[3] = system: 18 bacteria (27 standard strains); test: Sensitivity test, combination effect over the standard strains; assay type: cell-based; conditions: in combination with compound 1, standard strains
Procedure: as §1, §2, §3, §5, §6

S. marcescens GN6473 = test: Sensitivity test (agar dilution); assay type: cell-based, Serratia marcescens
Procedure: as §1, §2, §3, §4, §5, §6

S. marcescens X 100 = test: Sensitivity test (agar dilution); assay type: cell-based, Serratia marcescens
Procedure: as §1, §2, §3, §4, §5, §6

P. vulgaris GN7919 = test: Sensitivity test (agar dilution); assay type: cell-based, Proteus vulgaris
Procedure: as §1, §2, §3, §4, §5, §6

P. vurgalis OX-19 = test: Sensitivity test (agar dilution); assay type: cell-based, Proteus vulgaris
Procedure: as §1, §2, §3, §4, §5, §6

P. mirabiris GN2425 = test: Sensitivity test (agar dilution); assay type: cell-based, Proteus mirabilis
Procedure: as §1, §2, §3, §4, §5, §6

E. faecium ATCC19434 = test: Sensitivity test (agar dilution); assay type: cell-based, Enterococcus faecium
Procedure: as §1, §2, §3, §4, §5, §6

K. pneumoniae ATCC10031 = test: Sensitivity test (agar dilution); assay type: cell-based, Klebsiella pneumoniae
Procedure: as §1, §2, §3, §4, §5, §6

C. freundii GN346 = test: Sensitivity test (agar dilution); assay type: cell-based, Citrobacter freundii
Procedure: as §1, §2, §3, §4, §5, §6

Compound: C[C@@H](O)[C@H]1C(=O)N2C(C(=O)O)=C(SCCN=CN)C[C@H]12 [IPM, imipenem]
- MIC (E. cloacae GN7471; Concomitant (IPM:SM = 1:1)): 0.125 µg/mL
- MIC (E. cloacae GN7471; alone): 0.125 µg/mL
- MIC (S. epidermidis IAM1296; Concomitant (IPM:SM = 1:1)): 0.016 µg/mL
- MIC (S. epidermidis IAM1296; alone): 0.25 µg/mL
- MIC (B. subtilis ATCC6633; Concomitant (IPM:SM = 1:1)): ≦0.002 μg/ml
- MIC (B. subtilis ATCC6633; alone): 0.016 µg/mL
- MIC (M. catarrhalis ATCC25238; Concomitant (IPM:SM = 1:1)): ≦0.002 μg/ml
- MIC (M. catarrhalis ATCC25238; alone): 0.008 µg/mL
- MIC (M. catarrhalis ATCC8176; Concomitant (IPM:SM = 1:1)): ≦0.002 μg/ml
- MIC (M. catarrhalis ATCC8176; alone): 0.008 µg/mL
- MIC (E. coli ML1410 RP4): 0.5 µg/mL
- MIC (E. faecalis ATCC19433; Concomitant (IPM:SM = 1:1)): 0.5 µg/mL
- MIC (E. faecalis ATCC19433; alone): 1 µg/mL
- MIC (E. aerogenes ATCC13048; Concomitant (IPM:SM = 1:1)): 0.125 µg/mL
- MIC (E. aerogenes ATCC13048; alone): 0.25 µg/mL
- MIC (S. maltophilia IID1275; Concomitant (IPM:SM = 1:1)): >32 µg/mL
- MIC (S. maltophilia IID1275; alone): >32 µg/mL
- MIC ([1]; Concomitant (IPM:SM = 1:1)): 2 µg/mL
- MIC ([1]; alone): >32 µg/mL
- MIC ([2]; Concomitant (IPM:SM = 1:1)): 0.25 µg/mL
- MIC ([2]; alone): 0.125 µg/mL
- MIC (S. aureus 209P; Concomitant (IPM:SM = 1:1)): 0.004 µg/mL
- MIC (S. aureus 209P; alone): 0.008 µg/mL
- MIC (P. aeruginosa TL-2667; Concomitant (IPM:SM = 1:1)): 8 µg/mL
- MIC (P. aeruginosa TL-2667; alone): 8 µg/mL
- MIC (P. aeruginosa TL-2666; Concomitant (IPM:SM = 1:1)): 1 µg/mL
- MIC (P. aeruginosa TL-2666; alone): 2 µg/mL
- MIC (P. aeruginosa IFO3451; Concomitant (IPM:SM = 1:1)): 0.5 µg/mL
- MIC (P. aeruginosa IFO3451; alone): 1 µg/mL
- MIC (E. coli NIHJ JC-2; Concomitant (IPM:SM = 1:1)): 0.063 µg/mL
- MIC (E. coli NIHJ JC-2; alone): 0.125 µg/mL
- MIC (E. coli ML1410): 0.25 µg/mL
- MIC (Str. pyogenes Cook; Concomitant (IPM:SM = 1:1)): ≦0.002 μg/ml
- MIC (Str. pyogenes Cook; alone): ≦0.002 μg/ml
- MIC (M. luteus ATCC9341; Concomitant (IPM:SM = 1:1)): 0.004 µg/mL
- MIC (M. luteus ATCC9341; alone): 0.024 µg/mL
- combination effect [3]: the combination effect was recognized
- MIC (S. marcescens GN6473; Concomitant (IPM:SM = 1:1)): 0.25 µg/mL
- MIC (S. marcescens GN6473; alone): 0.25 µg/mL
- MIC (S. marcescens X 100; Concomitant (IPM:SM = 1:1)): 0.125 µg/mL
- MIC (S. marcescens X 100; alone): 0.25 µg/mL
- MIC (P. vulgaris GN7919; Concomitant (IPM:SM = 1:1)): 0.5 µg/mL
- MIC (P. vulgaris GN7919; alone): 1 µg/mL
- MIC (P. vurgalis OX-19; Concomitant (IPM:SM = 1:1)): 0.063 µg/mL
- MIC (P. vurgalis OX-19; alone): 1 µg/mL
- MIC (P. mirabiris GN2425; Concomitant (IPM:SM = 1:1)): 0.25 µg/mL
- MIC (P. mirabiris GN2425; alone): 1 µg/mL
- MIC (E. faecium ATCC19434; Concomitant (IPM:SM = 1:1)): 0.125 µg/mL
- MIC (E. faecium ATCC19434; alone): 4 µg/mL
- MIC (K. pneumoniae ATCC10031; Concomitant (IPM:SM = 1:1)): 0.031 µg/mL
- MIC (K. pneumoniae ATCC10031; alone): 0.125 µg/mL
- MIC (C. freundii GN346; Concomitant (IPM:SM = 1:1)): 0.25 µg/mL
- MIC (C. freundii GN346; alone): 0.5 µg/mL

Source: patent publication US20090018111A1, “Novel Antimicrobial Medicament” (priority 2004, published 2009)
